Each structure is given as a SMILES string.

One assay addresses recombinant human TRAP5b (Homo sapiens, UniProt P13686). The experiment in a line: TRAP activity assay (PNPP) with recombinant TRAP5b. It counts as biochemical. Conditions: pH 5.8, 30 min 37 °C, mean ± standard error, n = 3. The procedure: Recombinant unspecified human TRAP was purchased from R&D (Minneapolis, USA). Recombinant human TRAP5a and 5b were produced and purified according to a protocol based on several sources[70]–[72] using an ÄKTApurifier™ 10 FPLC system (GE Healthcare, Danderyd, Sweden) as previously described.
Inhibitor dilutions were prepared in acetate buffer from freshly prepared stock solutions (10 mM in DMSO). Recombinant unspecified TRAP (1.25 ng/ml, pH 4.5), TRAP5a (150 ng/mL, pH 5) or TRAP5b (150 ng/mL, pH 5.8) were incubated at 37 °C for 30 minutes with PNPP solution [10 mM PNPP, 200 mM sodium acetaat, 300 mM potassium chloride) at the indicated pH at a 1:1 ratio and increasing concentrations of NaAuCl4 (range 0–40 μM) or Au compounds (range 0–5.1 μM). To stop the reaction, 1M NaOH was added and absorption at 410 nm, with 490 nm as a reference value, was measured using a spectrophotometer.
(§1) The inhibitory effects of gold compounds were calculated as the ratio of absorbance between the treated and untreated wells. The IC50 values were calculated using nonlinear curve fitting with a variable slope in Graphpad Prism 6 (Graphpad Software, la Jolla, USA). An average IC50 of three independent experiments was calculated.

In a further assay the test system is other proteins. Details: method as in PMID 20162197, PMID 21370912. Conditions: compared to TRAP isoforms; cited from earlier work.
For assay [1], the target named is T1, TRAP activity in lysates of murine MPI alveolar macrophages (Mus musculus, UniProt Q05117).
T1 construct: endogenous in cells; host or cells: murine MPI alveolar-like macrophages
T1 sequence (Q05117 23-327): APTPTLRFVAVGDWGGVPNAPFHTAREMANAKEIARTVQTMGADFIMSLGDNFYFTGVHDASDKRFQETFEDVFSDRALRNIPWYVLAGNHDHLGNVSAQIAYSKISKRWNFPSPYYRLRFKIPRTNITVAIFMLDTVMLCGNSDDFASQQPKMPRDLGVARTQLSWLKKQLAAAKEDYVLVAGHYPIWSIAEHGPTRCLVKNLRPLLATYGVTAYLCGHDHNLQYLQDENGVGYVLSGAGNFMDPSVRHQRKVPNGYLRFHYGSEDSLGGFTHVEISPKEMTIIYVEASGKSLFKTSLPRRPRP
Nature of the assay: TRAP activity assay on MPI alveolar macrophage lysates. It counts as biochemical. As to conditions: cell lysates of murine MPI alveolar macrophages; mean ± standard error, n = 3. The procedure: Mouse alveolar macrophage lysates were obtained by resuspending 500.000 MPI macrophages in 300 μl acetate buffer. Human lung lysates from COPD patients were used to test the inhibitor on human TRAP present in lung tissue. Lysates from in total 18 COPD patients were pooled (see Supplementary Table S3 for patient characteristics).
AubipyOMe was tested in the range 0–40 μM with MPI cell lysates or pooled lung tissue lysates from COPD patients using a TRAP activity assay. Lysates were incubated at 37 °C for 30 min in the presence of PNPP solution (1:1 ratio). 1M NaOH was added to stop the reaction and absorption was measured at 410 nm with 490 nm as a reference value.
as §1
Identification of TRAP inhibitors […]
Inhibitor dilutions were prepared in acetate buffer from freshly prepared stock solutions (10 mM in DMSO). […] To stop the reaction, 1M NaOH was added and absorption at 410 nm, with 490 nm as a reference value, was measured using a spectrophotometer. […]
The inhibitory effects of gold compounds were calculated as the ratio of absorbance between the treated and untreated wells. […]

Sequence of recombinant human TRAP5b (P13686 22-161 limits assumed): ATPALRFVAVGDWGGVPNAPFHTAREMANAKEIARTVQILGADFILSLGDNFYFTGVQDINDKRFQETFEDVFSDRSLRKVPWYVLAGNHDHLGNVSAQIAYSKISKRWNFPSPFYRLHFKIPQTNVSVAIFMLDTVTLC
Sequence of recombinant human TRAP5b (P13686 182-325 limits assumed): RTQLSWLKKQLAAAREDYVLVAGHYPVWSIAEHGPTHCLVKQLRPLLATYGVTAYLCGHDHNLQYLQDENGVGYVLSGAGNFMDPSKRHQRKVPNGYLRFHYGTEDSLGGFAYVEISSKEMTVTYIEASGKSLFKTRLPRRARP

A word on the IC50: it is the concentration needed to halve the response being measured. Turning to `COc1ccnc(-c2cc(OC)ccn2)c1.F[P-](F)(F)(F)(F)F.[Cl][Au+][Cl]` [AubipyOMe, [Au(4,4′-dimethoxy-2,2′-bipyridine)Cl2][PF6]], the half-maximal inhibitory concentration (IC50) at recombinant human TRAP5b is 1800 ± 300 nM; in assay [1], 1700 ± 400 nM. In addition, the “inhibitory effects on other proteins” value with other proteins is “extremely moderate”.

The values above are taken from paper PMC5626781, “A Potent Tartrate Resistant Acid Phosphatase Inhibitor to Study the Function of TRAP in Alveolar Macrophages” (Scientific Reports, 2017).
